Test results as given in ChEMBL document CHEMBL5154774, “Discovery of Novel Celastrol-Imidazole Derivatives with Anticancer Activity In Vitro and In Vivo” (J Med Chem, 2022).
Active and inactive are the calls of the source. The rule behind the calls is not given here.

Columns and labels:
A549 [1] = experiment: Antiproliferative activity against human A549 cells assessed as inhibition of cell growth incubated for 48 hrs by MTT assay; format: functional, cell-based; details: A549, 48 h
HCT-116 = experiment: Antiproliferative activity against human HCT-116 cells assessed as inhibition of cell growth incubated for 48 hrs by MTT assay; format: functional, cell-based; details: HCT-116, 48 h
U2OS = experiment: Antiproliferative activity against human U2OS cells assessed as inhibition of cell growth incubated for 48 hrs by MTT assay; format: functional, cell-based
MDA-MB-231 = experiment: Antiproliferative activity against human MDA-MB-231 cells assessed as inhibition of cell growth incubated for 48 hrs by MTT assay; format: functional, cell-based; details: MDA-MB-231, 48 h
A549 [2] = experiment: Induction of apoptosis in human A549 cells assessed as downregulation of p-Akt level incubated for 12 hrs by Western blot analysis; format: functional, cell-based; details: dose 1.25-5 µM, DDE = dose-dependent effect
A549 [3] = experiment: Induction of apoptosis in human A549 cells assessed as downregulation of Cdk4 level incubated for 12 hrs by Western blot analysis; format: functional, cell-based; details: dose 1.25-5 µM, DDE = dose-dependent effect
A549 [4] = experiment: Upregulation of Bax protein expression in human A549 cells at 1.25 to 5 uM incubated for 12 hrs by Western blot analysis; format: functional, cell-based; details: dose 1.25-5 µM
A549 [5] = experiment: […] of Bcl-2 protein expression in human A549 cells at 1.25 to 5 uM incubated for 12 hrs by Western blot analysis; format: functional, cell-based; details: dose 1.25-5 µM
A549 [6] = experiment: Upregulation of cleaved capase-3 expression in human A549 cells at 1.25 to 5 uM incubated for 12 hrs by Western blot analysis; format: functional, cell-based; details: dose 1.25-5 µM
A549 [7] = experiment: Upregulation of cleaved PARP expression in human A549 cells at 1.25 to 5 uM incubated for 12 hrs by Western blot analysis; format: functional, cell-based; details: dose 1.25-5 µM
A549 [8] = experiment: Induction of apoptosis in human A549 cells assessed as total apoptotic cells at 0.2 uM incubated for 48 hrs Annexin V-FITC/propidium iodide staining based flow cytometry relative to control; format: functional
A549 [9] = experiment: Induction of apoptosis in human A549 cells assessed as total apoptotic cells at 0.4 uM incubated for 48 hrs Annexin V-FITC/propidium iodide staining based flow cytometry relative to control; format: functional
A549 [10] = experiment: Induction of apoptosis in human A549 cells assessed as total apoptotic cells at 0.8 uM incubated for 48 hrs Annexin V-FITC/propidium iodide staining based flow cytometry relative to control; format: functional
A549 [11] = experiment: Induction of apoptosis in human A549 cells at 0.1 to 0.4 uM incubated for 48 hrs by Hoechst33342 staining based fluorescence microscopic analysis; format: functional, cell-based; details: dose 0.1-0.4 µM
A549 [12] = experiment: Induction of cell cycle arrest in human A549 cells assessed as accumulation of cells at G0/G1 phase measured after 24 hrs by PI staining based flow cytometry analysis; format: functional; details: dose 0.1-0.4 µM, DDE = dose-dependent effect
A549 [13] = experiment: Antiproliferative activity against human A549 cells expressing Hsp90-Cdc37 protein assessed as inhibition of cell growth incubated for 48 hrs by MTT assay; format: functional, cell-based; details: A549, 48 h
A549 [14] = experiment: Antiproliferative activity against human A549 cells expressing Hsp90 protein assessed as inhibition of cell growth incubated for 48 hrs by MTT assay; format: functional, cell-based; details: A549, 48 h
A549 [15] = experiment: Antiproliferative activity against human A549 cells expressing Cdc37 protein assessed as inhibition of cell growth incubated for 48 hrs by MTT assay; format: functional, cell-based; details: A549, 48 h
A549 [16] = experiment: Antitumor activity against human A549 cells xenografted in BALB/c mouse lung tumor model assessed as tumor weight at 1 mg/kg, ip measured every day for 21 days by caliper method; format: functional; details: time 21 day
A549 [17] = experiment: Antitumor activity against human A549 cells xenografted in BALB/c mouse lung tumor model assessed as tumor inhibition rate at 1 mg/kg, ip measured every day for 21 days by caliper method relative to control; format: functional; details: A549, 504 h, time 21 day
A549 [18] = experiment: Antitumor activity against human A549 cells xenografted in BALB/c mouse lung tumor model assessed as tumor inhibition rate at 0.5 mg/kg, ip measured every day for 21 days by caliper method relative to control; format: functional; details: A549, 504 h, time 21 day
A549 [19] = experiment: Inhibition of Hsp90-Cdc37 complex in human A549 cells assessed as decrease in Hsp90-Cdc37 protein level at 10 uM incubated for 6 hrs by co-immunoprecipitation assay relative to CEL; format: cell-based
[20] = target: T1, Hsp90 co-chaperone Cdc37 (Homo sapiens) (UniProt Q16543); experiment: Binding affinity to Cdc37 (unknown origin) at 80 uM by UV-Vis spectrophotometric analysis
T1 sequence (whole entry): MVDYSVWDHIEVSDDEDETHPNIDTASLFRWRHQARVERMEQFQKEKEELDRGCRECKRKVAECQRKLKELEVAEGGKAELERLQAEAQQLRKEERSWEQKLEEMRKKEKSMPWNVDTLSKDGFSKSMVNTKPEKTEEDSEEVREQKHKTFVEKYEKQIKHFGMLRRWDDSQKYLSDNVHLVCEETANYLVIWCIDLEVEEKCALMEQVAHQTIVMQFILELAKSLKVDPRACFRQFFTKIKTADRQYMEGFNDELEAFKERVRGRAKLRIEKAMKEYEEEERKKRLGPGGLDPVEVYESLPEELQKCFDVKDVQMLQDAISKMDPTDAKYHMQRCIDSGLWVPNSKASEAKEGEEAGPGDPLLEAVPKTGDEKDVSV

[21] = target: Heat shock protein HSP90 (Homo sapiens) (UniProt P07900+P08238); experiment: Binding affinity to Hsp90 (unknown origin) at 80 uM by UV-Vis spectrophotometric analysis; format: protein assay
[22] = Stability of the compound in PBS/MeOH buffer by HPLC analysis; format: physicochemical
[23] = Toxicity in BALB/c mouse xenografted with human A549 cells assessed as reduction in body weight at 0.5 to 1 mg/kg, ip measured for 21 days; format: organism-based; details: in vivo, 504 h, dose 0.5-1 mg/kg, time 21 day
[24] = Thiol reactivity of the compound with DTT by 1H-NMR analysis; format: physicochemical

IC50 (A549 [1]): 540 nM
IC50 (HCT-116): 590 nM
IC50 (U2OS): 570 nM
IC50 (MDA-MB-231): 570 nM
IC50 (A549 [13]): > 100000 nM
IC50 (A549 [14]): > 100000 nM
IC50 (A549 [15]): > 100000 nM
Activity [20]: Active
Activity [21]: Active
Stability [22]: Stable
Activity [24]: Active
SMILES: CC1=C(O)C(=O)C=C2C1=CC=C1[C@@]2(C)CC[C@@]2(C)[C@@H]3C[C@](C)(C(=O)OCCCn4cc([N+](=O)[O-])nc4Cl)CC[C@]3(C)CC[C@]12C
Activity (A549 [2]): Dde
Activity (A549 [3]): Dde
Activity (A549 [4]): Active
Activity (A549 [5]): Active
Activity (A549 [6]): Active
Activity (A549 [7]): Active
Activity (A549 [8]): 9%
Activity (A549 [9]): 11.7%
Activity (A549 [10]): 29.9%
Activity (A549 [11]): Active
Activity (A549 [12]): Dde
Activity (A549 [16]): 0.46 g
inhibition in vivo at 1 mg/kg (A549 [17]): 68.3%
inhibition in vivo at 0.5 mg/kg (A549 [18]): 54.1%
inhibition (A549 [19]): 33.3%
Activity [23]: Non-Toxic
